From ChEMBL document CHEMBL3045472, “Synthesis and evaluation of some novel methylene-bridged aryl semicarbazones as potential anticonvulsant agents” (Med Chem Res, 2012)

Tests used:
Mus musculus [1] = test: Anticonvulsant activity in Mus musculus albino (mouse) assessed as decrease in pentylenetetrazole-induced total seizure time at 300 mg/kg, ip administered 30 min followed by pentylenetetrazole induction measured for 30 min (reference value: 9.9 +/- 1.3 secs); format: functional; settings: route intraperitoneal
Mus musculus [2] = test: Anticonvulsant activity in Mus musculus albino (mouse) assessed as increase in onset of pentylenetetrazole-induced seizure at 100 mg/kg, ip administered 30 min followed by pentylenetetrazole induction measured for 30 min (reference value: 184 +/- 32 secs); format: functional; settings: route intraperitoneal
Mus musculus [3] = test: Anticonvulsant activity in pentylenetetrazole-induced Mus musculus albino (mouse) seizure model assessed as survival at 100 mg/kg, ip administered 30 min followed by pentylenetetrazole induction measured for 30 min relative to control; format: functional; settings: 0.5 h, route intraperitoneal
Mus musculus [4] = test: Anticonvulsant activity in Mus musculus albino (mouse) assessed as decrease in pentylenetetrazole-induced total seizure time at 100 mg/kg, ip administered 30 min followed by pentylenetetrazole induction measured for 30 min (reference value: 9.9 +/- 1.3 secs); format: functional; settings: route intraperitoneal
Mus musculus [5] = test: Anticonvulsant activity in Mus musculus albino (mouse) assessed as increase in onset of pentylenetetrazole-induced seizure at 300 mg/kg, ip administered 30 min followed by pentylenetetrazole induction measured for 30 min (reference value: 184 +/- 32 secs); format: functional; settings: route intraperitoneal
Mus musculus [6] = test: Anticonvulsant activity in pentylenetetrazole-induced Mus musculus albino (mouse) seizure model assessed as death time at 300 mg/kg, ip administered 30 min followed by pentylenetetrazole induction measured for 30 min (reference value: 416 +/- 58.2 secs); format: functional; settings: route intraperitoneal
Mus musculus [7] = test: Anticonvulsant activity in Mus musculus albino (mouse) assessed as protection against pentylenetetrazole-induced seizure at 100 mg/kg, ip administered 30 min followed by pentylenetetrazole induction measured for 30 min relative to control; format: functional; settings: route intraperitoneal
Mus musculus [8] = test: Anticonvulsant activity in pentylenetetrazole-induced Mus musculus albino (mouse) seizure model assessed as survival at 300 mg/kg, ip administered 30 min followed by pentylenetetrazole induction measured for 30 min relative to control; format: functional; settings: 0.5 h, route intraperitoneal
Mus musculus [9] = test: Anticonvulsant activity in pentylenetetrazole-induced Mus musculus albino (mouse) seizure model assessed as death time at 100 mg/kg, ip administered 30 min followed by pentylenetetrazole induction measured for 30 min (reference value: 416 +/- 58.2 secs); format: functional; settings: route intraperitoneal
Mus musculus [10] = test: Anticonvulsant activity in Mus musculus albino (mouse) assessed as protection against pentylenetetrazole-induced seizure at 300 mg/kg, ip administered 30 min followed by pentylenetetrazole induction measured for 30 min relative to control; format: functional; settings: route intraperitoneal
Mus musculus [11] = test: Anticonvulsant activity in pentylenetetrazole-induced Mus musculus albino (mouse) seizure model assessed as survival at 50 mg/kg, ip administered 30 min followed by pentylenetetrazole induction measured for 30 min relative to control; format: functional; settings: 0.5 h, route intraperitoneal
Mus musculus [12] = test: Neurotoxicity in Mus musculus albino (mouse) assessed as minimal motor impairment at 300 mg/kg, ip measured for 180 secs by rotorod test; format: toxicity, organism-based; parameters: dose 300 mg/kg, route intraperitoneal; settings: in vivo, 0.05 h
Mus musculus [13] = test: Anticonvulsant activity in Mus musculus albino (mouse) assessed as decrease in pentylenetetrazole-induced total seizure time at 50 mg/kg, ip administered 30 min followed by pentylenetetrazole induction measured for 30 min (reference value: 9.9 +/- 1.3 secs); format: functional; settings: route intraperitoneal
Mus musculus [14] = test: Anticonvulsant activity in Mus musculus albino (mouse) assessed as increase in onset of pentylenetetrazole-induced seizure at 50 mg/kg, ip administered 30 min followed by pentylenetetrazole induction measured for 30 min (reference value: 184 +/- 32 secs); format: functional; settings: route intraperitoneal
Mus musculus [15] = test: Anticonvulsant activity in Mus musculus albino (mouse) assessed as protection against pentylenetetrazole-induced seizure at 50 mg/kg, ip administered 30 min followed by pentylenetetrazole induction measured for 30 min relative to control; format: functional; settings: route intraperitoneal
Mus musculus [16] = test: Anticonvulsant activity in pentylenetetrazole-induced Mus musculus albino (mouse) seizure model assessed as death time at 50 mg/kg, ip administered 30 min followed by pentylenetetrazole induction measured for 30 min (reference value: 416 +/- 58.2 secs); format: functional; settings: route intraperitoneal
Mus musculus [17] = test: Anticonvulsant activity in Mus musculus albino (mouse) assessed as protection against pentylenetetrazole-induced seizure at 220 mg/kg, ip administered 30 min followed by pentylenetetrazole induction measured for 30 min relative to control; format: functional; settings: route intraperitoneal
Mus musculus [18] = test: Anticonvulsant activity in pentylenetetrazole-induced Mus musculus albino (mouse) seizure model assessed as survival at 220 mg/kg, ip administered 30 min followed by pentylenetetrazole induction measured for 30 min relative to control; format: functional; settings: 0.5 h, route intraperitoneal
Mus musculus [19] = test: Anticonvulsant activity in Mus musculus albino (mouse) assessed as decrease in pentylenetetrazole-induced total seizure time at 220 mg/kg, ip administered 30 min followed by pentylenetetrazole induction measured for 30 min (reference value: 9.9 +/- 1.3 secs); format: functional; settings: route intraperitoneal
Mus musculus [20] = test: Anticonvulsant activity in Mus musculus albino (mouse) assessed as increase in onset of pentylenetetrazole-induced seizure at 220 mg/kg, ip administered 30 min followed by pentylenetetrazole induction measured for 30 min (reference value: 184 +/- 32 secs); format: functional; settings: route intraperitoneal
Mus musculus [21] = test: Anticonvulsant activity in pentylenetetrazole-induced Mus musculus albino (mouse) seizure model assessed as death time at 220 mg/kg, ip administered 30 min followed by pentylenetetrazole induction measured for 30 min (reference value: 416 +/- 58.2 secs); format: functional; settings: route intraperitoneal
Mus musculus [22] = test: Neurotoxicity in Mus musculus albino (mouse) assessed as minimal motor impairment at 220 mg/kg, ip measured for 180 secs by rotorod test; format: toxicity, organism-based; parameters: dose 220 mg/kg, route intraperitoneal; settings: in vivo, 0.05 h

| Structure (SMILES) | Time (Mus musculus [1]) | Time (Mus musculus [2]) | survival at 100 mg/kg (Mus musculus [3]) | Time (Mus musculus [4]) | Time (Mus musculus [5]) | Time (Mus musculus [6]) | Activity (Mus musculus [7]) | survival at 300 mg/kg (Mus musculus [8]) | Time (Mus musculus [9]) | Activity (Mus musculus [10]) | survival at 50 mg/kg (Mus musculus [11]) | Time (Mus musculus [13]) | Time (Mus musculus [14]) | Activity (Mus musculus [15]) | Time (Mus musculus [16]) | other results |
| --- | --- | --- | --- | --- | --- | --- | --- | --- | --- | --- | --- | --- | --- | --- | --- | --- |
| CCOc1ccc(NCC(=O)N/N=C/c2ccccc2Cl)cc1 | 9.3 s | 436 s | 43% | 8.5 s | 590 s | 651 s | 14% | 12% | 1189 s | 0% |  |  |  |  |  |  |
| CCOc1ccc(NCC(=O)N/N=C/c2ccccc2[N+](=O)[O-])cc1 | 6.8 s | 275 s | 12% | 8.7 s | 626 s | 734 s | 0% | 14% | 1011 s | 14% |  |  |  |  |  |  |
| CCOc1ccc(NCC(=O)N/N=C/c2ccc([N+](=O)[O-])cc2)cc1 | 5.2 s | 603 s | 50% | 5.3 s | 885 s | 1286 s | 16% | 44% | 1137 s | 22% | 67% | 7.3 s | 643 s | 16% | 1528 s | Activity (Mus musculus [12]): Toxic |
| CCOc1ccc(NCC(=O)N/N=C/c2ccccc2O)cc1 | 6.4 s | 275 s | 12% | 11 s | 616 s | 896 s | 0% | 0% | 659 s | 0% | 33% | 5.2 s | 903 s | 22% | 1055 s |  |
| CCOc1ccc(NCC(=O)NN=C(C)C)cc1 | 4.2 s | 373 s | 0% | 4.9 s | 425 s | 606 s | 0% | 0% | 623 s | 0% |  |  |  |  |  |  |
| CCOc1ccc(NCC(=O)N/N=C(/C)c2ccccc2)cc1 | 5.8 s | 243 s | 0% | 5.9 s | 414 s | 483 s | 0% | 0% | 310 s | 0% |  |  |  |  |  |  |
| O=C(CNc1ccc(Br)cc1)N/N=C/c1ccccc1[N+](=O)[O-] | 2.8 s | 144 s | 38% | 11 s | 1073 s | 1265 s | 0% | 33% | 897 s | 33% |  |  |  |  |  |  |
| O=C(CNc1ccc(Br)cc1)N/N=C/c1ccc([N+](=O)[O-])cc1 | 3.8 s | 640 s | 62% | 6.1 s | 809 s | 1456 s | 0% | 62% | 1400 s | 38% | 50% | 3.7 s | 596 s | 16% | 1122 s |  |
| O=C(CNc1ccc(Br)cc1)N/N=C/c1ccccc1O | 6.6 s | 724 s | 100% | 7.7 s | 884 s | 1800 s | 25% | 100% | 1800 s | 38% | 25% | 8.6 s | 562 s | 25% | 832 s |  |
| O=C(CNc1ccc(Br)cc1)N/N=C/c1ccccc1Cl | 4.5 s | 403 s | 25% | 6.4 s | 514 s | 781 s | 0% | 29% | 885 s | 14% |  |  |  |  |  |  |
| CC(C)=NNC(=O)CNc1ccc(Br)cc1 | 3.3 s | 224 s | 25% | 10 s | 1098 s | 1428 s | 0% | 64% | 945 s | 45% |  |  |  |  |  |  |
| C/C(=N\NC(=O)CNc1ccc(Br)cc1)c1ccccc1 | 3.1 s | 498 s | 86% | 11 s | 915 s | 1161 s | 14% | 50% | 1577 s | 38% |  |  |  |  |  |  |
| CCCC(CCC)C(=O)[O-].[Na+] [VALPROATE SODIUM] |  |  |  |  |  |  |  |  |  |  |  |  |  |  |  | Activity (Mus musculus [17]): 50%; survival at 220 mg/kg (Mus musculus [18]): 100%; Time (Mus musculus [19]): 2.3 s; Time (Mus musculus [20]): 1207 s; Time (Mus musculus [21]): 1800 s; Activity (Mus musculus [22]): Non-toxic |
